The results in this text go back to patent US12240844B2 (Voronoi, Inc., priority 2019, dated 2025).

One assay concerns the target T1, TTK (Homo sapiens, UniProt P33981).
T1 sequence (P33981 1-857): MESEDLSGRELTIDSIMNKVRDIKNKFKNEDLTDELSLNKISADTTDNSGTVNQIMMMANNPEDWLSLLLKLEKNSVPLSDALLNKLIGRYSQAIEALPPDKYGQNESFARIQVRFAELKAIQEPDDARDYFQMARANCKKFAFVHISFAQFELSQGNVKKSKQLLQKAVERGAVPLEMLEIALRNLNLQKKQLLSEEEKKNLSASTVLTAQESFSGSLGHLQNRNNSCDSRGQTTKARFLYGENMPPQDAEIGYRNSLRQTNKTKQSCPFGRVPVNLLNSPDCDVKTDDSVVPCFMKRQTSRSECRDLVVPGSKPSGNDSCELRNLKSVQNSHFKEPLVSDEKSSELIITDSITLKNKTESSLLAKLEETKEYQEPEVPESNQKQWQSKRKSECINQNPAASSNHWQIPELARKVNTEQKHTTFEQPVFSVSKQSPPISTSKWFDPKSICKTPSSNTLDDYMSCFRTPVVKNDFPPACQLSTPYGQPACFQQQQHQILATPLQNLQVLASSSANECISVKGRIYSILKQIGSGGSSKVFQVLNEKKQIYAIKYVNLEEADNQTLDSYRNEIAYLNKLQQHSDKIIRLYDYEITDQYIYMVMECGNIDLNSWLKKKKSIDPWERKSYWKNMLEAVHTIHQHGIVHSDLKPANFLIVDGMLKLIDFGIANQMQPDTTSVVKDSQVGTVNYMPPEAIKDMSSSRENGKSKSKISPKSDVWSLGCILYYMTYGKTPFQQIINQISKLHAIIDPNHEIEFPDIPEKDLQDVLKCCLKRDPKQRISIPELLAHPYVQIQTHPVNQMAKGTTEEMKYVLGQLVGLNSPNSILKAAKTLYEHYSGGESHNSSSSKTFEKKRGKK
Kind of assay: scanMAX Kinase panel (DiscoverX), % control. Type of assay: binding. The following applies: <35% = active. On the set-up: purchased DiscoverX. On the procedure: (§1) Specifically, for Examples 162, 160, 105, 217, 205, 96, 207, 184, 206, 221, 238, and 237 selected among the example compounds of the present invention, it was decided to measure enzyme (kinase) selectivity by DiscoverX, and the experiment was conducted using a panel for scanMAX™ Kinase analysis. At this time, the concentration of the drug treated with the enzyme was 1 uM in DMSO, the control percentage (% control) was determined in the same way as in Equation 1 below, and the results were shown in Table 6 below. [formula] Here, the positive control refers to a compound showing a control percentage of 0%, and the negative control is DMSO, indicating a control percentage of 100%. Also, in the enzyme selectivity of the present invention, if the control percentage for each enzyme was <35% (i.e., less than 35%), it was determined to have activity against the relevant enzyme.

Another assay deals with T2, ALK (L1196M) (Homo sapiens, UniProt Q9UM73, L1196M).
T2 construct: purchased DiscoverX
T2 sequence (Q9UM73 19-1620 L1196M): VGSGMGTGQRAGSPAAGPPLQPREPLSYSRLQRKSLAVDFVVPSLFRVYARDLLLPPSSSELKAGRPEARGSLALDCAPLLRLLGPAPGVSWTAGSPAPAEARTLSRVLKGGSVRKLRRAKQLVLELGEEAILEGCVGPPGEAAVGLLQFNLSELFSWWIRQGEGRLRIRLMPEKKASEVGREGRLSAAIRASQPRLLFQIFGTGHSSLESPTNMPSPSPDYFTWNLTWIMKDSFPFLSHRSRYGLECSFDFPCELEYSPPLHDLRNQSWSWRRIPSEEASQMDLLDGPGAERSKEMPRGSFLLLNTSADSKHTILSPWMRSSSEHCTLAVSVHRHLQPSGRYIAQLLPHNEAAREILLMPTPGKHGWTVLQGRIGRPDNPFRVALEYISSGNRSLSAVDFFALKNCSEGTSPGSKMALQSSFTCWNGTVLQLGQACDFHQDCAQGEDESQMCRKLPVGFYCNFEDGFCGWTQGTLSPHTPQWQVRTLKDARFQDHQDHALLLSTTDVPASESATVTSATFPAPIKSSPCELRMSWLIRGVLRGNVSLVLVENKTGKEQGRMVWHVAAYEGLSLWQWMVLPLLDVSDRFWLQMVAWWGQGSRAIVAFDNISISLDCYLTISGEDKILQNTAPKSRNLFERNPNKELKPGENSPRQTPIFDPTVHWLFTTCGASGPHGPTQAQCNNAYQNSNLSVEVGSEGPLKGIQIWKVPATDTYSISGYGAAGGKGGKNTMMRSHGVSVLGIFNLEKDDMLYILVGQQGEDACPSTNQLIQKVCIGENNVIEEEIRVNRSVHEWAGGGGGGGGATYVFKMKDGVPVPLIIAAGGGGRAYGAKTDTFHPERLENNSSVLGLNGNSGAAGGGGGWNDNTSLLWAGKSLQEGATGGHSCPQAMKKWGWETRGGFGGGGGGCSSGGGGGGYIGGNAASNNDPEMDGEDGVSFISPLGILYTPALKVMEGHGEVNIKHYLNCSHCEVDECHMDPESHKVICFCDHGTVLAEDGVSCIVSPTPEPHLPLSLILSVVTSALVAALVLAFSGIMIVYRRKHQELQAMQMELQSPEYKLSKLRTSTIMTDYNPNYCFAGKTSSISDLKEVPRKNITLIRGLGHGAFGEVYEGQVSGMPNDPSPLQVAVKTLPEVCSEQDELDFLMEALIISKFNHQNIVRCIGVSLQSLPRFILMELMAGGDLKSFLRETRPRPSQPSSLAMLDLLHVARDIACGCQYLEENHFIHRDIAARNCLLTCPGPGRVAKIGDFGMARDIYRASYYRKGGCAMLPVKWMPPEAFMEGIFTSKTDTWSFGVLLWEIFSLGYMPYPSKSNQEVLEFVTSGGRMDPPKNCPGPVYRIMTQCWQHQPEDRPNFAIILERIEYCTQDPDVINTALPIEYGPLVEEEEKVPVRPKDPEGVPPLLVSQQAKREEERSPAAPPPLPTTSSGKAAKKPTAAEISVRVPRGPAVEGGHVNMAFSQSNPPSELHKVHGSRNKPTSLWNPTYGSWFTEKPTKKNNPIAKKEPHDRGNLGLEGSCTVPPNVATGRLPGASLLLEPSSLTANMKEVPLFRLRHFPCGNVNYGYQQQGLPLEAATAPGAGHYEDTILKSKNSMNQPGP
The assay can be described thus: scanMAX Kinase panel (DiscoverX), % control. Type of assay: binding. The following applies: <35% = active. How it is done: as §1

For a further assay, the target named is T3, MYLK (Homo sapiens, UniProt Q15746).
T3 construct: purchased DiscoverX
T3 sequence (Q15746 whole entry): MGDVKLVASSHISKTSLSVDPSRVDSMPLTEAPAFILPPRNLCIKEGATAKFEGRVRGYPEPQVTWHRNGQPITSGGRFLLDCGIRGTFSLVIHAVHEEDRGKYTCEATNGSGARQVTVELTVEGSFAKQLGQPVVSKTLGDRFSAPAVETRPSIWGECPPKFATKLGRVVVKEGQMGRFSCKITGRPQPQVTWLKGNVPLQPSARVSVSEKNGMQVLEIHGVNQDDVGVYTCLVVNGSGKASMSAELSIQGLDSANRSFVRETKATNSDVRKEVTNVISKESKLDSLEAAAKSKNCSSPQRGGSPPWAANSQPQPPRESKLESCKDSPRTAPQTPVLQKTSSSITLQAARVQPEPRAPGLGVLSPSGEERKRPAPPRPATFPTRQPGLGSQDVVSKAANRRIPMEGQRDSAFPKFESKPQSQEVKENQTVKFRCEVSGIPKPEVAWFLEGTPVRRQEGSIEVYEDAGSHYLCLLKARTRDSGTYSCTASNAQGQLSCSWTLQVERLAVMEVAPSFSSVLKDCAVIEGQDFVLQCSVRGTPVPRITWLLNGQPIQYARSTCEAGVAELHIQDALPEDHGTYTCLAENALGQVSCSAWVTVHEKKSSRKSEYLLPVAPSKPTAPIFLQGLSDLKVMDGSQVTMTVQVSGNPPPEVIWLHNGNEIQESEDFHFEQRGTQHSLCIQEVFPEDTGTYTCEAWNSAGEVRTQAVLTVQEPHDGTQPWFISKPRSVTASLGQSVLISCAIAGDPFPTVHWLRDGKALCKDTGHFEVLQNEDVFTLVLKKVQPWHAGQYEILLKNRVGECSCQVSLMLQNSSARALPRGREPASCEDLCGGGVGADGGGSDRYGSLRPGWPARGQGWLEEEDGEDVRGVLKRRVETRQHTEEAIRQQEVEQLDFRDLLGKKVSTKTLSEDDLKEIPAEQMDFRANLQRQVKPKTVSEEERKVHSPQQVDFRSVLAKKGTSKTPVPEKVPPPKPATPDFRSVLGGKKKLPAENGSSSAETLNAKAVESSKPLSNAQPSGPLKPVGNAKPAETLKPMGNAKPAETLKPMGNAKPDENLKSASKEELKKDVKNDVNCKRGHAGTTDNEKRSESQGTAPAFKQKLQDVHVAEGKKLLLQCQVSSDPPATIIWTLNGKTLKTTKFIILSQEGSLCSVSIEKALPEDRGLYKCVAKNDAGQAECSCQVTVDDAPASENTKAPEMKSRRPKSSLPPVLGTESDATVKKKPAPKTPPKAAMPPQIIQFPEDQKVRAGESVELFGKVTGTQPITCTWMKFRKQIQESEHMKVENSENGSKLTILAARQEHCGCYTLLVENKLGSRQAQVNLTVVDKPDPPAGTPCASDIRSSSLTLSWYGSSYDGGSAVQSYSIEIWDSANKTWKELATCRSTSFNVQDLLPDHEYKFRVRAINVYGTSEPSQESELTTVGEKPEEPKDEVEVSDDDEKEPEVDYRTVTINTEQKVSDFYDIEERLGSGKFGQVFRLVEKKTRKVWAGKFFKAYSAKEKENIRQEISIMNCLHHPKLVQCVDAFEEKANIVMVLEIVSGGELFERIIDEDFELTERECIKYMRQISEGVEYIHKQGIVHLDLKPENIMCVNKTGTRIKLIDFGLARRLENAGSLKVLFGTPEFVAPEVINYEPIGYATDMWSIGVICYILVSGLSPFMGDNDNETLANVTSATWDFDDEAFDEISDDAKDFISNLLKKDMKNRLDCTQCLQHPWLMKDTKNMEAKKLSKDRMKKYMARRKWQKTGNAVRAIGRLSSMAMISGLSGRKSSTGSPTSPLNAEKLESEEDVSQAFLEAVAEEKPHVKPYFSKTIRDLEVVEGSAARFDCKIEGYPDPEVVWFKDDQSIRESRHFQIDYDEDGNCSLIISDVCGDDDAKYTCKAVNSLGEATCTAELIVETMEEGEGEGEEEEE
Kind of assay: scanMAX Kinase panel (DiscoverX), % control. Type of assay: binding. Particulars: <35% = active. On the procedure:
as §1

A further assay addresses T4, ALK (C1156Y) (Homo sapiens, UniProt Q9UM73, C1156Y).
T4 construct: purchased DiscoverX
Kind of assay: scanMAX Kinase panel (DiscoverX), % control. Type of assay: binding. Particulars: <35% = active. How it is done:
as §1

A further assay deals with T5, DYRK1A (Homo sapiens, UniProt Q13627).
T5 construct: purchased DiscoverX
The assay can be described thus: scanMAX Kinase panel (DiscoverX), % control. Type of assay: binding. Particulars: <35% = active. On the procedure:
as §1

The next assay addresses T6, CLK2 (Homo sapiens, UniProt P49760).
T6 construct: purchased DiscoverX
The assay can be described thus: scanMAX Kinase panel (DiscoverX), % control. Type of assay: binding. The following applies: <35% = active. How it is done:
as §1

Assay [1] concerns the target T7, LRRK2, LRRK2 (G2019S), DYRK1, CLK1 and TTK kinases (Homo sapiens, UniProt Q13627).
T7 construct: other: DYRK1; Kinase HotSpot service (Reaction Biology), ATP 10 uM
Kind of assay: Enzyme IC50 by Kinase HotSpot service (Reaction Biology Corporation), values marked with *. Type of assay: biochemical. Particulars: DYRK1, ATP 10 uM. The essentials: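 Radiometric-service kinase assays (Reaction Biology HotSpot protocol) run at 10 uM ATP under uniform conditions. Compounds tested as 3-fold dilution series from a top concentration of […] to give IC50.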

The test system of the next assay is human DYRK1A and Tau. Kind of assay: Tau phosphorylation inhibition, ClariCELL Kinase Cell-Based Assay (Carnabio). The essentials: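 HEK293 cells transiently expressing human DYRK1A and Tau were exposed to compound, then lysed. Released Tau was captured on plate and its phosphorylation quantified by ELISA with a phospho-Tau-specific antibody.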

T6 sequence (P49760 whole entry): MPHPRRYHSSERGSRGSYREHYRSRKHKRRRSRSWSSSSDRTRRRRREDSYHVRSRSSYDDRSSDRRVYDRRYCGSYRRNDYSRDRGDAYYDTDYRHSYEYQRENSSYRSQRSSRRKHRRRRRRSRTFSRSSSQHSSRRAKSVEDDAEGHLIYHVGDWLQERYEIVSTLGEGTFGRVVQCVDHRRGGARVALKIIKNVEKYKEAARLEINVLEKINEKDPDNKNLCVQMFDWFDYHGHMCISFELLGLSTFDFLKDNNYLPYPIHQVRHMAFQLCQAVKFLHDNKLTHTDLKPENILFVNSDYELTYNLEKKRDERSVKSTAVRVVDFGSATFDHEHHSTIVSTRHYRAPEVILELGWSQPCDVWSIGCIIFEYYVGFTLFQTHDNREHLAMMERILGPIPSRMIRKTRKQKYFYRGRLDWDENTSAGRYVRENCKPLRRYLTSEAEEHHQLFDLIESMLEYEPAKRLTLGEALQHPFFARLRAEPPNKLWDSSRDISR
T4 sequence (Q9UM73 19-1620 C1156Y): as the sequence (Q9UM73 19-1620 L1196M) above, with C1138Y, M1178L counted along it

Take `CCCNc1cc(Nc2ccc(C(=O)N3CCC(N4CCOCC4)CC3)c3c2OCCO3)nc2[nH]cc(C(F)(F)F)c12` [Example 162, (4-morpholinopiperidin-1-yl)(8-((4-(propylamino)-3-(trifluoromethyl)-1H-pyrrolo[2,3-b]pyridin-6-yl)amino)-2,3-dihydrobenzo[b] [1,4]dioxin-5-yl)methanone]: the remaining binding at 1 µM at TTK is 3.4%; on ALK (L1196M), 1.3%; at MYLK, 0%; at ALK (C1156Y) it was 0.9%; at DYRK1A it was 0.35%; on CLK2 it was 0.65%.
As for `CNc1cc(Nc2ccc(P3(=O)CCN(C4CC4)CC3)cc2OC)nc2[nH]cc(C(F)(F)F)c12` [Example 205, 1-cyclopropyl-4-(3-methoxy-4-((4-(methylamino)-3-(trifluoromethyl)-1H-pyrrolo[2,3-b]pyridin-6-yl)amino)phenyl)-1,4-azaphosphinane 4-oxide], the remaining binding at 1 µM came out at 5.5% at TTK; 1.6% on ALK (L1196M); 0% on MYLK; 1.3% on ALK (C1156Y); 0.25% on DYRK1A; 0.15% at CLK2.
`O=C(c1ccc(Nc2cc(C3CC3)c3c(C(F)(F)F)c[nH]c3n2)c2c1CCO2)N1CC[C@@H](N2CCOCC2)C1` [Example 238, (R)-(7-((4-cyclopropyl-3-(trifluoromethyl)-1H-pyrrolo[2,3-b]pyridin-6-yl)amino)-2,3-dihydrobenzofuran-4-yl)(3-morpholinopyrrolidin-1-yl)methanone] displayed an IC50 in assay [1] below 100 nM. For the same compound, the remaining binding at 1 µM at TTK was 4.1%; on ALK (L1196M), 58%; on MYLK, 33%; on ALK (C1156Y), 42%; at DYRK1A, 1.9%; at CLK2, 0.25%. This compound also gave an inhibition at 0.25 µM with human DYRK1A and Tau of 9.8%. This compound also returned an inhibition at 0.5 µM with human DYRK1A and Tau of 26.4%. In addition, the inhibition at 1 µM in the assay with human DYRK1A and Tau came out at 48.3%.
For the compound `CCNc1cc(Nc2ccc(S(=O)(=O)N3CCC(N4CCOCC4)CC3)c3c2OCCO3)nc2[nH]cc(C(F)(F)F)c12` [Example 96, N^4-ethyl-N^6-(8-((4-morpholonopiperidin-1-yl)sulfonyl)-2,3-dihydrobenzo [b] [1,4]dioxin-5-yl)-3-(trifluoromethyl)-1H-pyrrolo[2,3-b]pyridine-4,6-diamine], the remaining binding at 1 µM on TTK is 2.7%; on ALK (L1196M), 28%; at MYLK, 37%; at ALK (C1156Y), 10%; at DYRK1A it was 1.3%; on CLK2, 1.2%. At 0.25 µM the inhibition with human DYRK1A and Tau was 11%. The inhibition at 0.5 µM in the assay with human DYRK1A and Tau is 19.6%. The compound also had an inhibition at 1 µM in the assay with human DYRK1A and Tau of 52.8%.
Consider `CCNc1cc(Nc2ccc(P3(=O)CCN(C4CC4)CC3)cc2OC)nc2[nH]cc(C(F)(F)F)c12` [Example 206, 1-cyclopropyl-4-(4-((4-(ethylamino)-3-(trifluoromethyl)-1H-pyrrolo[2,3-b]pyridin-6-yl)amino)-3-methoxyphenyl)-1,4-azaphosphinane 4-oxide], for which the remaining binding at 1 µM was 0.65% at TTK; 23% on ALK (L1196M); 3% at MYLK; 5.3% on ALK (C1156Y); 2% at DYRK1A; 3.1% on CLK2.
With `CCNc1cc(Nc2ccc(C(=O)N3CCC(N4C[C@@H]5C[C@H]4CO5)CC3)c3c2OCC3)nc2[nH]cc(C(F)(F)F)c12` [Example 105, (4-((1S,4S)-2-oxa-5-azabicyclo[2.2.1]heptan-5-yl)piperidin-1-yl)(7-((4-(ethylamino)-3-(trifluoromethyl)-1H-pyrrolo[2,3-b]pyridin-6-yl)amino)-2,3-dihydrobenzofuran-4-yl)methanone], the remaining binding at 1 µM turned out to be 2.6% on TTK; 2.3% at ALK (L1196M); 1.3% on MYLK; 2% at ALK (C1156Y); 0% at DYRK1A; 0.35% on CLK2. The compound also registered an inhibition at 0.25 µM in the assay with human DYRK1A and Tau of 60.2%. For the same compound, the inhibition at 0.5 µM in the assay on human DYRK1A and Tau amounted to 74%. The compound further had an inhibition at 1 µM in the assay on human DYRK1A and Tau of 92%.
For `CNc1cc(Nc2ccc(C(=O)N3CC[C@H](N4CCOCC4)C3)c3c2OCC3)nc2[nH]cc(C(F)(F)F)c12` [Example 217, (S)-(7-((4-(methylamino)-3-(trifluoromethyl)-1H-pyrrolo[2,3-b]pyridin-6-yl)amino)-2,3-dihydrobenzofuran-4-yl)(3-morpholinopyrrolidin-1-yl)methanone], the remaining binding at 1 µM on TTK worked out at 3%; at ALK (L1196M) it was 18%; at MYLK, 1.8%; at ALK (C1156Y), 3.9%; at DYRK1A it was 0%; on CLK2, 0.55%. The compound further came in with an inhibition at 0.25 µM in the assay on human DYRK1A and Tau of 50.2%. Also, testing at 0.5 µM in the assay with human DYRK1A and Tau gave an inhibition of 60.6%. Moreover, the inhibition at 1 µM in the assay with human DYRK1A and Tau was determined as 84.5%.
`O=C(c1ccc(Nc2cc(C3CC3)c3c(C(F)(F)F)c[nH]c3n2)c2c1OCCO2)N1CCC(N2CCOCC2)CC1` [Example 221, (8-((4-cyclopropyl-3-(trifluoromethyl)-1H-pyrrolo[2,3-b]pyridin-6-yl)amino)-2,3-dihydrobenzo [b] [1,4]dioxin-5-yl)(4-morpholinopiperidin-1-yl)methanone] returned an IC50 in assay [1] below 100 nM. Also, the remaining binding at 1 µM was 4.5% at TTK; 28% at ALK (L1196M); 30% at MYLK; 12% at ALK (C1156Y); 5.1% on DYRK1A; 8.2% on CLK2. In the assay with human DYRK1A and Tau, this compound returned an inhibition at 0.25 µM of 6.2%. In the assay on human DYRK1A and Tau, this compound showed an inhibition at 0.5 µM of 24.7%. In the assay on human DYRK1A and Tau, this compound came in with an inhibition at 1 µM of 23%.
As for `CNc1cc(Nc2ccc(C(=O)N3CCC(N4CCOCC4)CC3)c3c2OCCO3)nc2[nH]cc(C(F)(F)F)c12` [Example 160, (8-((4-(methylamino)-3-(trifluoromethyl)-1H-pyrrolo[2,3-b]pyridin-6-yl)amino)-2,3-dihydrobenzo [b] [1,4]dioxin-5-yl)(4-morpholinopiperidin-1-yl)methanone], the remaining binding at 1 µM amounted to 3.4% at TTK; 1.3% at ALK (L1196M); 0% on MYLK; 0.9% at ALK (C1156Y); 0.35% on DYRK1A; 0.65% on CLK2.
With `COCCNc1cc(Nc2ccc(P3(=O)CCN(C4CC4)CC3)cc2OC)nc2[nH]cc(C(F)(F)F)c12` [Example 207, 1-cyclopropyl-4-(3-methoxy-4-((4-((2-methoxyethyl)amino)-3-(trifluoromethyl)-1H-pyrrolo[2,3-b]pyridin-6-yl)amino)phenyl)-1,4-azaphosphinane 4-oxide], the remaining binding at 1 µM is 4.8% at TTK; 10% on ALK (L1196M); 5.3% on MYLK; 1.8% at ALK (C1156Y); 0.4% on DYRK1A; 7.2% on CLK2.

By IC50 is commonly meant the point on the concentration scale where inhibition reaches its midpoint. Broadly, the inhibition is how much of the control response was suppressed. A lower inhibition goes with a weak effect.
